Data published in patent publication EP2727596A1, “eEF2/eEF2K as therapeutic target for treating TNF-alpha-related diseases” (Fundación Centro Nacional de Investigaciones …, priority 2012, dated 2014).
“Also recorded” adds a separate entry of the source.

Columns and labels:
[1] = tested on: D-Gal+LPS-treated mice; assay: D-Gal+LPS-induced liver damage (hepatitis) in mice treated with p38 inhibitors; assay type: in vivo; settings: WT mice, inhibitor i.p. 15mg/kg prior to LPS injection
Source text: (§1) MKK3 and MKK6 are the main regulators of the α, β, γ and δ p38MAPK isoforms. […] The specific action of these inhibitors on MAPK pathway activity was firstly examined. […] No changes in ERK or JNK phosphorylation were observed.
(§2) Mkk3^-/- (B6.129-Map2k3^tm1Flv), Mkk6^-l- (B6.129-Map2k6^tm1Flv) were as previously described. p38γ (B6.129-Mapk12^tm1) and p38δ (B6.129-Mapk13^tm1) mice were crossed with B6.129P2-Lyz2tm1(cre)Ifo/J and back-crossed for ten generations to the C57BL/6J background (The Jackson Labs) and genotyped by PCR analysis of genomic DNA. Radiation chimeras were generated by exposing recipient mice to two doses of ionizing radiation ([…]) and reconstituting them with 2x10^7 donor bone marrow cells by injection into the tail vein. […] Specificity of the depletion of cell populations was determined by flow cytometry of blood samples collected during the experiment.
Serum activities of alanine transaminase (ALT) and aspartate aminotrasferase (AST) were measured using the ALT and AST Reagent Kit (Biosystems Reagents) with a Benchmark Plus Microplate Spectrophotometer. Serum concentrations of cytokines were measured by multiplexed ELISA with a Luminex 200 analyzer (Millipore). […]

[2] = tested on: p38α/β; assay: MAPK pathway activity: phosphorylation of p38α substrate HSP27 (immunoblot); assay type: in vivo; settings: mice treated prior to LPS injection
Procedure: (§3) MKK3 and MKK6 are the main regulators of the α, β, γ and δ p38MAPK isoforms.
(§4) Tissue extracts were prepared using Triton lysis buffer (20 mM Tris [pH 7.4], 1% Triton X-100, 10% glycerol, 137mM NaCl, 2mM EDTA, 25mM β-glycerophosphate, 1 mM sodium orthovanadate, 1mM phenylmethylsulfonyl fluoride, and 10µg/mL aprotinin and leupeptin). Extracts (30µg protein) and immunoprecipitates (prepared from 2 mg protein) were examined by protein immunoblot analysis with antibodies to ERK1/2, phospho-ERK1/2, phospho-MKK3/6, p38α MAPK, phospho-p38, phospho-hsp27, phospho-JNK1/2, JNK1/2, caspase 3, cleaved caspase 3, cleaved PARP and phospho-eEF2 kinase (Ser366), all from Cell Signaling and MKK3 (Pharmingen), MKK6 (Stressgen), and GAPDH and eEF2 (Santa Cruz Biotechnology). The anti-p38γ and p38δ antibodies were raised against the peptides which correspond to the C termini of the proteins.

[3] = molecular target: T1, p38δ (Mus musculus, UniProt Q9Z1B7); settings: mice treated prior to LPS injection
T1 sequence (Q9Z1B7 1-366): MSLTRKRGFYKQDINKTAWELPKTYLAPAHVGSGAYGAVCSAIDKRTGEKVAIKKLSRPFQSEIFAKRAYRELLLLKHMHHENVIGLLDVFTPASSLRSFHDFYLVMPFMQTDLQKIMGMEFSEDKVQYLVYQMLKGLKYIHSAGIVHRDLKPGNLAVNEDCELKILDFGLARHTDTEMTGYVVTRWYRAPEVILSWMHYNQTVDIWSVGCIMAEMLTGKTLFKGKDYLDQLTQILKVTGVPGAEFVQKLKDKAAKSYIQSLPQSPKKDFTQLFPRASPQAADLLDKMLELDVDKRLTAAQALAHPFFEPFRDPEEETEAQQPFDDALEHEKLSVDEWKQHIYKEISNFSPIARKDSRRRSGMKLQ
Procedure: as §3, §4

[4] = tested on: ERK; assay: MAPK pathway activity: ERK phosphorylation (immunoblot); assay type: in vivo; settings: mice treated prior to LPS injection
Procedure: as §3, §4

[5] = tested on: JNK; assay: MAPK pathway activity: JNK phosphorylation (immunoblot); assay type: in vivo; settings: mice treated prior to LPS injection
Procedure: as §3, §4

[6] = tested on: TNFα; settings: healthy males; cited from earlier work
[7] = clinical use; cited from earlier work
[8] = tested on: TNFα; assay: serum TNFα in D-Gal+LPS-treated mice (inhibitors); assay type: in vivo
Source text: as §1, §2
(§5) Serum activities of alanine transaminase (ALT) and aspartate aminotrasferase (AST) were measured using the ALT and AST Reagent Kit (Biosystems Reagents) with a Benchmark Plus Microplate Spectrophotometer. Serum concentrations of cytokines were measured by multiplexed ELISA with a Luminex 200 analyzer (Millipore).

[9] = tested on: IL6; assay: serum IL6 in D-Gal+LPS-treated mice (inhibitors); assay type: in vivo
Source text: as §1, §2, §5

[10] = tested on: association of eEF2 with Tnfα mRNA; assay: RNA-immunoprecipitation assay: eEF2 binding to Tnfα mRNA in RAW 264.7 cells; assay type: cell-based, Mouse; settings: RAW 264.7 cells pretreated 10µM for 30 min before LPS (60min)
Procedure: (A-D) BM-derived macrophages from p38γ/δ^Lyz-KO and Lyzs-cre mice were treated with LPS (10µg/ml) or TNFα (20ng/ml). Data were analyzed by two-way ANOVA coupled to Bonferroni post-tests. • (A) ELISA of TNFα and IL-6 in supernatants. • (B) qRT-PCR of Tnfα and Il-6 mRNA normalized to Gapdh, • (C) Immunoblot of BM-derived macrophage (BMM) lysates. • (D) Flow cytometry of phospho-p38 in BM-derived macrophages stimulated with LPS and TNFα for 30 min. Intracellular phospho-p38 is depicted in blue; red corresponds to the isotype control. • (D-I) Cells were treated with LPS. Tnfα mRNA was detected by qRT-PCR in immunoprecipitates (1mg protein) obtained with anti-eEF2. mRNA amounts are expressed relative to the amount detected in control IgG immunoprecipitates. Data were analyzed by Student's t-test unless otherwise indicated. • (E) Tnfα mRNA in RAW 264.7 cell immunoprecipitates. • (F) Tnfα, Hif1α, and Il-6 mRNA in RAW 264.7 cell immunoprecipitates. […] Tnfα mRNA was measured in immunoprecipitates. • (G-H) Tnfα mRNA in immunoprecipitates of BM-derived macrophages from Lyzs-cre and 38γ/δ^Lyz-KO mice (G) or WT or ΔMKK3/6 mice (H) after stimulation (60min). eEF2 in immunoprecipitates was detected by immunoblot (upper panel).
To assess whether eEF2 controls TNFα elongation it was examined the binding of eEF2 to Tnfα mRNA in immunoprecipitates of mRNA-eEF2 complexes in RAW cells. […]

Row | Compound | D-Gal+LPS-induced liver damage (hemorrhage, apoptosis and necrosis) [1] | inhibition of p38α/β (loss of phosphorylation of p38α substrate HSP27) [2] | inhibition of p38δ activation (suppression of phosphorylation of its substrate eEF2K) [3] | ERK phosphorylation [4] | JNK phosphorylation [5] | inhibition of ex-vivo LPS-induced TNFα [6] [%] | liver enzyme elevations [7] | serum levels of TNFα [8] | serum levels of IL6 [9] | association of eEF2 with Tnfα mRNA [10]
1 | C[S+]([O-])c1ccc(-c2nc(-c3ccncc3)c(-c3ccc(F)cc3)[nH]2)cc1 (stereo not drawn) [SB203580] | intensifies; also recorded: exacerbated | efficiently inhibited | only BIRB796 was able to inhibit | No changes | No changes | – | – | – | – | –
2 | Cn1c(NC[C@@H](N)Cc2ccccc2)nc(-c2ccncc2)c(-c2ccc3ccccc3c2)c1=O [AMG 548] | – | – | – | – | – | > 85 | random liver enzyme elevations | – | – | –
3 | Cc1ccc(-n2nc(C(C)(C)C)cc2NC(=O)Nc2ccc(OCCN3CCOCC3)c3ccccc23)cc1 [BIRB796] | improves liver condition; also recorded: protected | efficiently inhibited | – | No changes | No changes | – | some liver enzyme elevations | reduced | reduced | abolished
